Here are results for 6 compounds from PMC12123366, “Effect of urea and squaramide IMPDH inhibitors on C. parvum: in vitro trial design impacts the assessment of drug efficacy” (International Journal for Parasitology: Drugs and Drug …, 2025).

Data set [1] has as its system C. parvum. Also noted: method as in Funkhouser-Jones et al., 2020. Conditions: ref Funkhouser-Jones et al., 2020; cited from earlier work.
The next data set deals with HCT-8 cells. The data set can be described thus: CytoTox 96 Non-Radioactive Cytotoxicity Assay. The format is cell-based, Human. The note with it: for Viability: 10 µM. The method, then:
(§1) HCT-8 cell lines (Human ileocecal adenocarcinoma) were purchased from The European Collection of Authenticated Cell Cultures (ECACC) under catalogue number No 90032006) and maintained with regular subculturing in a growth medium consisting in a RPMI 1640 medium supplemented with 1 mM sodium pyruvate, 2 mM l-glutamine, 10 % (vol/vol) of heat-inactivated fetal calf serum, 100 U/mL of penicillin and 100 μg/mL of streptomycin. Cells were grown in an incubator at 37 °C with 5 % (vol/vol) CO2 until monolayers reached 80–90 % confluency. Cells were cultivated in 96-well format plate for molecular analysis and in Lab-Tek™ Chamber Slides for microscopic analysis. 50,000 cells were seeded and incubated during 24 h (until confluency) before infection.
(§2) The compounds (2 mg/mL in DMSO) were diluted to 500 μM and serially diluted in maintenance medium. The cytotoxicity of the compounds was assessed using the CytoTox 96® Non-Radioactive Cytotoxicity Assay (Promega, G1790) in accordance with the manufacturer's protocol.
(§3) An initial screening experiment was conducted on the full library to evaluate the cytotoxicity effects on HCT-8 cells. Nitrophenylurea 12 was identified as being cytotoxic so was not progressed further (See Supporting Information). In total, 21 candidates were assessed for their ability to inhibit C. parvum replication at a concentration of 10 μM. Each compound was added at the start of the infection of HCT-8 cells (T0) and remained in the culture for 48 h post infection (hpi). Parasitic quantification was then performed using a molecular method (qPCR). Of the 21 compounds tested, nine were effective inhibitors, reducing parasite proliferation by 80 % or more (Fig. 6). A clear trend emerged with all of the benzyl-substituted ureas 6–10 displaying poor inhibitory activity, regardless of the attached heteroaryl substituent. […] Two exceptions to this were imidazole-containing analogues 18 and 19. […] Among the squaramide series, the results were highly dependent on the nature of the substituent, ranging from high (e.g. ketone 29, furan 32), medium (e.g. 3-pyrazole 30) to low (e.g. 4-pyrazole 31) anti-cryptosporidial activity.

The nature of data set [2]: CytoTox 96 Non-Radioactive Cytotoxicity Assay. The format is cell-based, Human. The note with it: human; HCT-8 cells, 10 µM. On the procedure: as §1, §2, §3
Data set [3] relates to C. parvum. The data set can be described thus: Inhibition of C. parvum replication in infected HCT-8 cells, parasite quantification by qPCR. The format is cell-based, Cryptosporidium parvum (Iowa strain) in human HCT-8 cells. The note with it: qPCR; for anti-cryptosporidial activity (in words): added at T0, 48 hpi. On the procedure:
as §1
(§4) C. parvum oocysts of “Iowa” strain was purchased from Waterborne Inc. and stored in PBS at 4 °C. A ratio of one oocyst per cell was used to infect HCT-8 cell. Oocysts suspension was incubated with 10 % of a solution (vol/vol) containing 0.5 % sodium hypochlorite for 10 min at 4 °C. After a washing step by centrifugation at 1800g for 15 min at 4 °C, oocysts were incubated in acidified water (pH 2.4) containing 0.025 % (wt/vol) of trypsin, at 37 °C for 20 min, to trigger excystation (infectivity assay developed by [Keegan et al., 2003]). After a third centrifugation step at 1800 g for 10 min, oocysts were suspended in a maintenance medium. The maintenance medium consisted of RPMI 1640 medium with 2 mM l-glutamine, 5 mM glucose, 0.5 μM folic acid, 7 μM 4-amino-benzoic acid, 0.1 μM calcium pantothenate, 50 nM ascorbic acid, 2 % (vol/vol) heat inactivated fetal calf serum and 100 U/mL of streptomycin/penicillin. Before oocyst inoculation, the growth medium was switched with maintenance medium. Triggered oocysts were finally added on monolayers and incubated during 48 h at 37 °C in a 5 % (vol/vol) CO2 atmosphere.
as §2
The COWP gene (GenBank no. AF248743) was amplified by qPCR following the previously described protocol ([Guy et al., 2003]), and the parasitic concentration was determined using the standard range of C. parvum oocyst concentrations. Briefly, serial dilutions from a pure C. parvum oocyst suspension were made starting from a stock solution of 5 × 10^7 oocysts (4 × 10^5 – 2 × 10^5 – 1 × 10^5 – […]–2.5 × 10^3–1.25 × 10^3 oocysts) and the standard curve for quantifying parasites was created to obtain a correlation between Cq values and the Log of concentration.
At the end of the experiment, supernatants from the C. parvum-infected cell cultures were collected. The cell layers were then washed (1x PBS), detached using trypsin (0.25 %), and centrifuged (10,000×g, 10 min). The resulting cell pellet was re-suspended in 150–200 μL of sterile 1x PBS and stored at −20 °C for later DNA extraction. DNA extraction of C. parvum was performed using the Purelink™ Microbiome Purification Kit (Invitrogen™) following the manufacturer's protocol “Transport Media and Microbial Culture Samples” ([Invitrogen, 2015]).
FRePCR reactions were formulated to a volume of 25 μL and comprised of 1.25 μL of primers (10 μM), 0.05 μL probe (100 μM), 12.5 μL Master Mix 2X, LightCycler 480 Probes Master (ref. 04707494001, Roche), 4.95 μL H2O nuclease-free and 5 μL of DNA template. Quantitative PCR was run on a CFX96 real time PCR system (BioRad) with an initial step of activation (10 min 95 °C) following by 40 cycles with cycling conditions as follows: 95 °C for 10 s, 60 °C for 1 min. BioRad CFX manager software was used to analyse the data. Samples were considered negative if Cq ≥ 40.
A common way of defining a 50 % response is to use a mathematical model like the 4-parameter logistic model (4 PL) ([Sebaugh, 2011]). […]
(In general: In qPCR the cycle at which signal appears reflects the starting amount.)

Data set [4] relates to C. parvum. Put plainly: Quantification of C. parvum development in HCT-8 cells by immunofluorescence microscopy. Type of data set: cell-based, Cryptosporidium parvum (Iowa strain) in human HCT-8 cells. The note with it: for reduction in parasite quantification: 7.5 μM. On the procedure:
as §1, §4
After aspiration of the supernatant from the Nunc™ Lab-Tek™ Chamber slide wells, cells were rinsed with PBS 1X. A fixation step was then performed using methanol during 8 min at 4 °C. Cryptosporidium developmental forms were labelled with a polyclonal IgG antibodies reaction kit tagged with Cy3 (Sporo-Glo™, Waterborne Inc.) and oocysts were labelled with FL-Crypt-a-Glo™, a fluorescein-labelled mouse monoclonal antibody made to oocyst outer wall antigenic sites (epitopes) of C. parvum. Antibodies were 1/20th diluted and incubated on cells for 1 h at room temperature. DNA was labelled with Hoechst for 5 min at room temperature. Slides were then coverslipped with a no fading mounting medium (Waterborne Inc.) and observed with a Leica DMi8 microscope. Each dilution was performed in triplicate and, for each well, ten images were taken at 400× magnification. Parasite quantification was carried out automatically using the StarDist neural network, which was specifically trained to detect and quantify C. parvum parasites.
To confirm our initial findings, we employed an alternative method using immunofluorescence microscopy to quantify C. parvum development in the presence of inhibitors (Fig. S1). […] The results corroborated our initial screening data, confirming the high efficacy of all tested chloronitrophenyl urea analogues, except for imidazole derivatives 18 and 19.
To test this hypothesis, increasing concentrations of squaramide 32 (i.e. 0, 2, 4 and 8 μM) were applied at different infection times: at 0 hpi (hours post infection), to assess the impact on parasite invasion; at 4 hpi, to examine the effect on the early stages of intracellular development; and at 30 hpi, to evaluate the influence on late stage intracellular development. The microscopic images in Fig. 7 illustrate the effect of 32 when applied at the onset of infection and at 30 hpi. Using fluorescent antibodies, the intracellular development of C. parvum is highlighted by green fluorescence, which allows for quantification of the number of parasites per image.

For the next data set, the system named is Cryptosporidium. The note with it: cited from earlier work.

On to `COc1ccc(NC(=O)N2CCCCN3[C@H](CN(C)C)[C@H](c4ccc(C#Cc5ccccc5)cc4)[C@@H]3C2)cc1` [BRD7929], for which the “stage-specific effect on C. parvum development (in words)” value in the data set with C. parvum [1] is “blocks nuclear division and arrest development at the trophozoite”.

For orientation: viability means the share of living cells, or the viability signal relative to a control. For the compound `CC(C)(NC(=O)Nc1ccc(Cl)c([N+](=O)[O-])c1)c1cccc(-c2cccc([N+](=O)[O-])c2)c1` [Compound 12, 1-(4-chloro-3-nitrophenyl)-3-(2-(3′-nitro-[1,1′-biphenyl]-3-yl)propan-2-yl)urea], in the data set with HCT-8 cells (initial screening), the “cytotoxicity (in words)” value is given as “cytotoxic”. For the same compound, in data set [2], the viability at 10 µM amounted to 58%.

As for `CC(C)(Nc1c(Nc2ccc(Cl)c([N+](=O)[O-])c2)c(=O)c1=O)c1cccc(-c2cn[nH]c2)c1` [Compound 31, (3-((2-(3-(1H-Pyrazol-4-yl)phenyl)propan-2-yl)amino)-2-((4-chloro-3-nitrophenyl)amino)-4-oxocyclobut-2-en-1-ylidene)oxonium], the Viability with HCT-8 cells is reported as 96.97%. In the data set on C. parvum [3] (10 μM), the “anti-cryptosporidial activity (in words)” value is given as “low”.

One may read the IC50 as the concentration needed to halve the response being measured. `CC(C)(Nc1c(Nc2ccc(Cl)c([N+](=O)[O-])c2)c(=O)c1=O)c1cccc(-c2ccco2)c1` [Compound 32, (2-((4-Chloro-3-nitrophenyl)amino)-3-((2-(3-(furan-2-yl)phenyl)propan-2-yl)amino)-4-oxocyclobut-2-en-1-ylidene)oxonium]: in the data set with C. parvum [4] (2 μM, applied at onset of infection (0 hpi)), the “effect on intracellular development (green fluorescence)” value is given as “significantly reduces green fluorescence”. Also, the “effect on distribution of parasite area” value with C. parvum [4] (7.5 μM or 15 μM, added at 30 hpi until 48 hpi) was “decreases the prevalence of both small and large parasites”. Moreover, the “reduction in parasite quantification” value is listed as greater than 80% in the data set on C. parvum [4] (added at 0 hpi, fluorescence microscopy) and 46% in the data set on C. parvum [4] (added at 30 hpi, until 48 hpi, fluorescence microscopy). Also, the “reduction of parasite load” value in the data set on C. parvum [4] (8 μM, added at 30 hpi, 18 h of treatment, fluorescence microscopy) was less than 50%. Also, in the data set with HCT-8 cells, the Viability amounted to 94.94%. The “anti-cryptosporidial activity (in words)” value in the data set with C. parvum [3] (10 μM) was “high”. Besides, the “inhibition rate of C. parvum replication” value with C. parvum [3] (10 μM, added at start of infection (T0), 48 hpi, mean ± SD (n = 3 wells)) is 87.2 ± 0.8%. Also, the IC50 in the data set with C. parvum [3] (compounds at 0, 3, 6 and 9 μM added at t0 and left until 48 hpi, read-out: IC50) came out at 2200 nM.

Take `CNC(=O)c1ccc(-c2cnc3cnc(C(=O)N(C)c4ccc(Cl)cc4)cn23)cc1` [KDU691]: the “stage-specific effect on C. parvum development (in words)” value with C. parvum [1] was “effective at later stages”.

On to `CC(=O)Oc1ccccc1C(=O)Nc1ncc([N+](=O)[O-])s1` [nitazoxanide], for which the “efficacy in immunocompromised patients (in words)” value in the data set with Cryptosporidium (even when administered in high doses, ref Rossignol et al., 1998) is listed as “ineffective”. The “efficacy in children (in words)” value in the data set with Cryptosporidium (ref Amadi et al., 2002) is reported as “limited”.
